From patent publication US20070105779A1, “Isolated, ssx-2 and ssx-2 related peptides useful as hla binders and ctl epitopes, and uses thereof” (priority 2002, published 2007)
Several values for one entry are separate records, joined by “and”; a condition that tells them apart may be missing. Equal values may be shown once. No end group written: not given here.

Assays:
T cell clone LAU 50/4D7 = assay: 51Cr release assay, T2 cells pulsed with serial dilutions of peptide, recognition by CTL clone LAU 50/4D7; assay type: cell-based, human; conditions: for recognition by CTL clone LAU 50/4D7 (in words): 51Cr release assay; for EC50: T2 cells pulsed with peptide, read-out: 50% maximal lysis
Description: CTL clone LAU 50/4D7 was used in a ^51Cr release assay using standard methods. In brief, cells of target cell line Me275, which is a melanoma line derived from the same patient as was LAU 50/4D7, were labeled with ^51Cr for one hour at 37° C., as were control cells “T2.” This line, more accurately referred to as “CEMx721.T2,” is described by Salter, et al., Immunogenetics 21:235-248 (1985).
Cells were washed, three times, and then were incubated with the LAU 50/4D7 cells, at various effector:target ratios (0.1/1, 1/1, 10/1, 100/1) Four hours after incubation at 37° C., chromium in the supernatant was measured. Percent specific lysis was calculated as: [formula]
To determine T cell recognition of the peptides, standard ^51Cr release assays were performed using T2 cells pulsed with serial dilutions of each peptide. The peptide dose required to induce half maximal lysis was determined.

T cell clone LAU50/4D7 = assay: lysis assay, T2 cells pulsed with 1 μM peptide, T cell clone LAU50/4D7; assay type: cell-based, human; conditions: peptide 1 μM, 37° C. 1 hour, T2 targets, 4 hours with T cells
Description: In these assays, T2 cells were used as the target, and were incubated with each of the listed peptides, at a concentration of 1 μM, at 37° C. for 1 hour. The T2 cells were then washed to remove excess peptides, and the T cells were incubated with the peptide pulsed target T2 cells for 4 hours at 37° C.

LAU 50/4D7 = assay: 51Cr release assay with twelve known HLA-A2 binders, peptide specificity of LAU 50/4D7; assay type: cell-based, human; conditions: HLA-A2+ target cells, peptide added after 51Cr labeling
Description: In these assays, following ^51Cr labeling of the HLA-A2^+ target cells, peptides were added and then lysis was determined, as described supra.

HLA-A2 = biological target: T1, HLA-A2 (Homo sapiens, UniProt P04439, D140Y/D185E/D98H/E176V/E277Q/G131W/G231S/I119V/I121R/I166T/I218V/L300P/L318F/N151K/N90K/P208A/P217A/Q86G/Q94H/R138H/R169H/T345S); assay: functional competition assay for peptide binding to HLA-A2 (inhibition of tyrosinase 368-376 recognition by CTL clone LAU 156/34 on T2 cells); assay type: cell-based; conditions: for IC50: competitor peptide concentration for 50% inhibition of target cell lysis
T1 construct: using T2 cells, because these express HLA-A2; endogenous in cells; host or cells: T2 cells
Description: T cell recognition by clone LAU 50/4D7 and binding to HLA-A2 by these peptides were determined experimentally. Peptide binding to HLA-A2 was determined in a functional competition assay.

[1] = relative to SEQ ID NO: 1 (=1), peptide dose for half maximal lysis, T2 cells, clone LAU 50/4D7
[2] = relative to SEQ ID NO: 1 (=1), concentration for 50% inhibition of target cell lysis
[3] = second table, similar assays, relative to SEQ ID NO: 1

| Compound | EC50 (T cell clone LAU 50/4D7; clone LAU 50/4D7) [nM] | IC50 (HLA-A2) [nM] | Relative Binding (HLA-A2; [2]) | Relative Binding (HLA-A2; relative to SEQ ID NO: 17 (=1)) | Relative Binding (HLA-A2; [3]) | recognition by CTL clone LAU 50/4D7 (in words) (T cell clone LAU 50/4D7) | % Lysis (T cell clone LAU50/4D7) | recognition of known HLA-A2 presented peptides by LAU 50/4D7 (LAU 50/4D7) | Relative Recognition (T cell clone LAU 50/4D7; [1]) | Relative Recognition (T cell clone LAU 50/4D7; relative to SEQ ID NO: 17 (=1)) | Relative Recognition (T cell clone LAU 50/4D7; [3]) | recognition by CTL clone LAU 50/4D7 (in words) (T cell clone LAU 50/4D7; listed as 1) |
| --- | --- | --- | --- | --- | --- | --- | --- | --- | --- | --- | --- | --- |
| gp100280-288: known HLA-A2 binder peptide | – | – | – | – | – | – | – | failed to recognize | – | – | – | – |
| NY-ESO-1157-165: known HLA-A2 binder peptide | – | – | – | – | – | – | – | failed to recognize | – | – | – | – |
| AAGPKIFYA [SEQ ID NO: 2] | 2 | 286 | 0.07 | 0.7 | – | – | – | – | 0.01 | 0.03 | – | – |
| AAAPAIFYA [SEQ ID NO: 4] | > 100 | 22 | 0.9 | 9 | 0.9 | – | – | – | <10^−5 | <10^−5 | <10^−6 | – |
| gp100208-217: known HLA-A2 binder peptide (TITDQVPFSV; UniProt P40967 208-217, looked up, fragment) | – | – | – | – | – | – | – | failed to recognize | – | – | – | – |
| AAAPKAFYA [SEQ ID NO: 5] | 0.3 | 200 | 0.1 | 1 | 0.1 | – | – | – | 0.05 | 0.2 | 0.06 | – |
| GLYDGMEHL [SEQ ID NO: 35, derives from MAGE-A10; HLA-A2; negative control] | – | – | – | – | – | – | 2% | – | – | – | – | – |
| tyrosinase1-9: known HLA-A2 binder peptide (MLLAVLYCL; UniProt P14679 1-9, looked up, fragment) | – | – | – | – | – | – | – | failed to recognize | – | – | – | – |

Further lines, with some results ahead:

| EC50 (T cell clone LAU 50/4D7; clone LAU 50/4D7) [nM] | IC50 (HLA-A2) [nM] | Relative Binding (HLA-A2; [2]) | Relative Binding (HLA-A2; relative to SEQ ID NO: 17 (=1)) | Relative Binding (HLA-A2; [3]) | Compound | recognition by CTL clone LAU 50/4D7 (in words) (T cell clone LAU 50/4D7) | % Lysis (T cell clone LAU50/4D7) | recognition of known HLA-A2 presented peptides by LAU 50/4D7 (LAU 50/4D7) | Relative Recognition (T cell clone LAU 50/4D7; [1]) | Relative Recognition (T cell clone LAU 50/4D7; relative to SEQ ID NO: 17 (=1)) | Relative Recognition (T cell clone LAU 50/4D7; [3]) | recognition by CTL clone LAU 50/4D7 (in words) (T cell clone LAU 50/4D7; listed as 1) |
| --- | --- | --- | --- | --- | --- | --- | --- | --- | --- | --- | --- | --- |
| 0.06 | – | – | – | – | CC[C@H](C)[C@H](NC(=O)[C@H](CCCCN)NC(=O)[C@H](CCC(=O)O)NC(=O)[C@H](CO)NC(=O)[C@H](C)NC(=O)[C@@H](N)CCCCN)C(=O)N[C@@H](Cc1ccccc1)C(=O)N[C@@H](Cc1ccc(O)cc1)C(=O)N[C@H](C(=O)O)C(C)C [SEQ ID NO: 17, reference compound] | in the same range as that of SEQ ID NO: 1 | 70% and 68% | – | – | – | – | – |
| 0.2 | 133 | 0.16 | 1.5 | 0.16 | AAAAKIFYA [SEQ ID NO: 3] | – | – | – | 0.1 | 0.3 | 0.1 | – |
| > 100 | 100 | 0.2 | 2 | 0.2 | CC[C@H](C)[C@H](NC(=O)[C@H](CCCCN)NC(=O)[C@@H]1CCCN1C(=O)[C@H](C)NC(=O)[C@H](C)NC(=O)[C@H](C)N)C(=O)N[C@@H](Cc1ccccc1)C(=O)N[C@@H](C)C(=O)N[C@@H](C)C(=O)O [SEQ ID NO: 6] | – | – | – | 10^−5 | <10^−5 | <10^−5 | – |
| 0.02 | 20 | 1 | 10 | – | AAAPKIFYA [SEQ ID NO: 1] | most active | – | – | 1 | 3 | – | at least equal to the natural peptide |
| 0.06 | – | – | – | – | AASEKIFYV [SEQ ID NO: 18] | at least equal to the natural peptide | – | – | – | 1 | – | – |
